Assay results taken from patent publication US8420574B2, “Plant growth enhancement with combinations of PESA and herbicides” (Valent BioSciences Corporation, priority 2009, dated 2013).
Where a name gives a salt, the structure may show the parent alone.

Legend:
rice cv. Cheniere [1] = test: Emergence of seed-treated rice seeded onto soil previously treated with herbicide; type: in vivo; settings: for Percent Emergence at 9 days after planting: untreated 90
From the text: Seed was sieved with a screen of mesh size appropriate to remove broken seeds and small trash. Cracked or otherwise damaged seeds were removed. The seed was well mixed, and 50 g samples were weighed into small plastic trays. […] A fungicide (Maxim XL; Syngenta Agricultural Products, Greensboro, N.C.), a polymeric binder (CF-Clear; Becker-Underwood, Ames, Iowa), and a colorant (Color Coat Red; Becker-Underwood, Ames, Iowa) were also included in the slurry at label rates. A small aliquot of this slurry was applied to the seed using the Hege 11 coater (Wintersteiger, Salt Lake City, Utah) with a six-inch bowl at a slurry rate of 30 ounces per 100 lbs of seed. The slurry was deposited drop-wise on the spinning disk atomizer using a syringe.
Rice cv. […] It was then seeded onto soil which was previously sprayed with the pendimethalin herbicide Prowl H2O® (BASF Agricultural Products, Research Triangle Park, N.C.).
After seed treatment, rice was seeded into soil previously treated with the dithiopyr herbicide Dimension®.
Rice seed treated with PESA was tested for its ability to protect rice from the herbicide Roundup WeatherMax® (glyphosate). After seed treatment, rice was seeded into soil previously treated with the Roundup WeatherMax®.

rice cv. Cheniere [2] = test: Pouch assay with PESA salt seed treatment; root length; type: in vivo; settings: for Root Length: untreated 9.8
Description: Procedure for Treating Samples of Seed in the Laboratory
Seed was sieved with a screen of mesh size appropriate to remove broken seeds and small trash. Cracked or otherwise damaged seeds were removed. The seed was well mixed, and 50 g samples were weighed into small plastic trays. Seed treatment slurries were made by adding measured amounts of PESA or its salts and other AIs to sufficient water to bring them up to a standard volume, typically 2 ml. A fungicide (Maxim XL; Syngenta Agricultural Products, Greensboro, N.C.), a polymeric binder (CF-Clear; Becker-Underwood, Ames, Iowa), and a colorant (Color Coat Red; Becker-Underwood, Ames, Iowa) were also included in the slurry at label rates. A small aliquot of this slurry was applied to the seed using the Hege 11 coater (Wintersteiger, Salt Lake City, Utah) with a six-inch bowl at a slurry rate of 30 ounces per 100 lbs of seed. The slurry was deposited drop-wise on the spinning disk atomizer using a syringe.
After treatment, each seed sample was placed in plastic trays and dried at a room temperature for 20 to 60 minutes. The samples were then placed in small plastic bags. Samples were spot-checked using a water activity meter to make sure the water activity is below 0.7.
Seeds were placed in germination pouches consisting of germination paper hydrated with sterile water that was an insert in a gas-permeable 16×14 cm plastic pouch (CYG Pouch; Mega International, St. Paul, Minn.). In these examples, in pouch solution evaluation, PESA sodium salt or other active ingredients were added to the sterile water in the pouch. The pouches were arranged in a completely randomized block design in growth racks and placed in 19-liter polycarbonate food storage containers (Rubbermaid Commercial Products, Winchester, Va.). The sealed containers were held in an upright growth cabinet maintained at 25 C with a 12 hour light: 12 hour dark photoperiod. After 6 days, the containers were removed from the growth cabinet, and the lengths of the roots and shoot were measured.
Rice cv. Chemere was treated with PESA sodium salt prior to growing in the pouch. The treated seeds were then grown in the pouch in a dose-dependent series of trifluralin concentrations (Table 2). […] This confirms that seed treatment with the PESA salt protects or safens rice from the negative effects of trifluralin herbicide on root growth.

O=C(O)CCC(=O)NCCc1ccccc1 [PESA salt, N-(2-phenylethyl)succinamic acid]
Percent Emergence at 12 days after planting (rice cv. Cheniere [1]; Dimension (dithiopyr) 0.25 pints/acre, seed treatment none (Control), 1 g GA3 and/or 50 g PESA salt per 100 lbs of seed, untreated 72.1): 61.0%
Percent Emergence at 12 days after planting (rice cv. Cheniere [1]; Dimension (dithiopyr) 0.5 pints/acre, seed treatment none (Control), 1 g GA3 and/or 50 g PESA salt per 100 lbs of seed, untreated 72.1): 13.9%
protection of emergence from glyphosate (rice cv. Cheniere [1]; PESA seed treatment, soil treated with Roundup WeatherMax, at 90 μg/cm^2): could protect the rice seedlings from glyphosate
Percent Emergence at 12 days after planting (rice cv. Cheniere [1]; Prowl (pendimethalin) 0.25 pints/acre, seed treatment none (Control), 1 g GA3 and/or 50 g PESA salt per 100 lbs of seed, untreated 84.5): 79.0%
Percent Emergence at 12 days after planting (rice cv. Cheniere [1]; Prowl (pendimethalin) 0.5 pints/acre, seed treatment none (Control), 1 g GA3 and/or 50 g PESA salt per 100 lbs of seed, untreated 84.5): 80.7%
Percent Emergence at 12 days after planting (rice cv. Cheniere [1]; Prowl (pendimethalin) 2 pints/acre, seed treatment none (Control), 1 g GA3 and/or 50 g PESA salt per 100 lbs of seed, untreated 84.5): 61.0%
Percent Emergence at 12 days after planting (rice cv. Cheniere [1]; no Dimension (Control), seed treatment 1 g GA3 and/or 50 g PESA salt per 100 lbs of seed, untreated 72.1): 77.2%
Percent Emergence at 12 days after planting (rice cv. Cheniere [1]; no Prowl (Control), seed treatment 1 g GA3 and/or 50 g PESA salt per 100 lbs of seed, untreated 84.5): 86.1%
Percent Emergence at 9 days after planting (rice cv. Cheniere [1]; seed treatment 25 g PESA salt per 100 kg of seed, glyphosate 0 μg/cm2): 80%
Percent Emergence at 9 days after planting (rice cv. Cheniere [1]; seed treatment 25 g PESA salt per 100 kg of seed, glyphosate 23 μg/cm2): 84%
Percent Emergence at 9 days after planting (rice cv. Cheniere [1]; seed treatment 25 g PESA salt per 100 kg of seed, glyphosate 90 μg/cm2): 28%
Percent Emergence at 9 days after planting (rice cv. Cheniere [1]; seed treatment 50 g PESA salt per 100 kg of seed, glyphosate 0 μg/cm2): 92%
Percent Emergence at 9 days after planting (rice cv. Cheniere [1]; seed treatment 50 g PESA salt per 100 kg of seed, glyphosate 23 μg/cm2): 78%
Percent Emergence at 9 days after planting (rice cv. Cheniere [1]; seed treatment 50 g PESA salt per 100 kg of seed, glyphosate 90 μg/cm2): 38%
protection of emergence from pendimethalin (rice cv. Cheniere [1]; seed treatment, soil sprayed with Prowl H2O, particularly at 2 pints/acre): could protect the rice seedlings from pendimethalin
protection of emergence from dithiopyr (rice cv. Cheniere [1]; seed treatment, soil treated with Dimension, particularly at 0.25 and 0.5 pints/acre): could protect the rice seedlings from dithiopyr
protection of root growth by seed treatment (rice cv. Cheniere [2]; PESA salt seed treatment, trifluralin 50 ppm): significant protection against intermediate rates of trifluralin (50 ppm)
Root Length (rice cv. Cheniere [2]; seed treatment 10 g PESA salt/100 lbs of seed, 0 ppm trifluralin): 10.7 cm
Root Length (rice cv. Cheniere [2]; seed treatment 10 g PESA salt/100 lbs of seed, 50 ppm trifluralin): 4.6 cm
Root Length (rice cv. Cheniere [2]; seed treatment 10 g PESA salt/100 lbs of seed, 100 ppm trifluralin): 0.3 cm
Root Length (rice cv. Cheniere [2]; seed treatment 25 g PESA salt/100 lbs of seed, 0 ppm trifluralin): 10.1 cm
Root Length (rice cv. Cheniere [2]; seed treatment 25 g PESA salt/100 lbs of seed, 50 ppm trifluralin): 5.2 cm
Root Length (rice cv. Cheniere [2]; seed treatment 25 g PESA salt/100 lbs of seed, 100 ppm trifluralin): 0.3 cm
Root Length (rice cv. Cheniere [2]; seed treatment 50 g PESA salt/100 lbs of seed, 0 ppm trifluralin): 10.3 cm
Root Length (rice cv. Cheniere [2]; seed treatment 50 g PESA salt/100 lbs of seed, 50 ppm trifluralin): 6.0 cm
Root Length (rice cv. Cheniere [2]; seed treatment 50 g PESA salt/100 lbs of seed, 100 ppm trifluralin): 0.3 cm
